This passage reports IC50 results from patent US10201533B2, “Substituted quinolizine derivatives useful as HIV integrase inhibitors” (priority 2013, dated 2019).

Molecules are shown by their SMILES. Like-named read-outs stand apart in the source and are kept apart here.

The test system of the test is HIV-1 (NL4-3 strain). The experiment in a line: microbe, parasite or virus in culture. It is filed as cell-based. The conditions noted are these: MT4-GFP cells infected with HIV-1 NL4-3, IP or IC50 from 4-parameter dose response curve.
Where [1] appears, read: Human immunodeficiency virus 1, NL43, 0% normal human serum (NHS), read-out: WILD TYPE CELL ASSAY Viking IP (0% NHS).
Where [2] appears, read: Human immunodeficiency virus 1, NL43, 100% normal human serum (NHS), read-out: WILD TYPE CELL ASSAY Viking IP (100% NHS).
The mark [3] stands for this setting: 0% normal human serum (NHS), read-out: WILD TYPE CELL ASSAY Viking IP (0% NHS).
[4] abbreviates: 100% normal human serum (NHS), read-out: WILD TYPE CELL ASSAY Viking IP (100% NHS).

With `C[C@]12CCCO[C@@H]1Cn1cc(C(=O)NCc3ccc(F)cc3F)c(=O)c(O)c1C2=O` (racemic) [Compound 9], the IC50 by setting is: under setting [1], 0.0026 µM; under setting [2], 0.235 µM.
In the case of `CC1(O)CCn2cc(C(=O)NCc3ccc(F)cc3F)c(=O)c(O)c2C1=O` (racemic) [Compound 53], the IC50 runs as follows: under setting [1], 0.064 µM; under setting [2], above 8.4 µM.
In the same order, the values of `C[C@@]12CCCO[C@@H]1Cn1cc(C(=O)NCc3c(F)cc(F)cc3F)c(=O)c(O)c1C2=O` (single isomer, unassigned) [Compound 14] are 0.0007 µM and 0.026 µM.
Turning to `C[C@@]12CCCO[C@@H]1Cn1cc(C(=O)NCc3cccc(Cl)c3F)c(=O)c(O)c1C2=O` (single isomer, unassigned) [Compound 15], the IC50 reads like this: under setting [1], 0.0005 µM; under setting [2], 0.073 µM.
As to `C[C@@]12CCCO[C@@H]1Cn1cc(C(=O)NCc3ccc(F)c(Cl)c3)c(=O)c(O)c1C2=O` (single isomer, unassigned) [Compound 16], the IC50 came to 0.0041 µM under setting [1] and 0.257 µM under setting [2].
For the molecule `C[C@@]12CCCO[C@@H]1Cn1cc(C(=O)NCc3ccc(F)c(F)c3F)c(=O)c(O)c1C2=O` (single isomer, unassigned) [Compound 17], the IC50 worked out at 0.0029 µM under setting [1] and 0.117 µM under setting [2].
Consider `C[C@@]12CCCO[C@@H]1Cn1cc(C(=O)NCc3ccc(F)cc3)c(=O)c(O)c1C2=O` (single isomer, unassigned) [Compound 18], for which the IC50 runs as follows: under setting [1], 0.0087 µM; under setting [2], 0.315 µM.
As to `C[C@]12CCCO[C@H]1Cn1cc(C(=O)NCc3ccc(F)cc3)c(=O)c(O)c1C2=O` (single isomer, unassigned) [Compound 19], the IC50 runs as follows: under setting [1], 0.0046 µM; under setting [2], 0.709 µM.
The corresponding values for `C[C@]12CCCO[C@H]1Cn1cc(C(=O)NCc3ccc(F)c(F)c3F)c(=O)c(O)c1C2=O` (single isomer, unassigned) [Compound 20] are 0.0035 µM and 0.839 µM.
Take `C[C@]12CCCO[C@H]1Cn1cc(C(=O)NCc3ccccc3F)c(=O)c(O)c1C2=O` (single isomer, unassigned) [Compound 21]: the IC50 by setting is: under setting [1], 0.0024 µM; under setting [2], 0.385 µM.
In the same order, the values of `C[C@]12CCCO[C@H]1Cn1cc(C(=O)NCc3c(F)cccc3F)c(=O)c(O)c1C2=O` (single isomer, unassigned) [Compound 22] are 0.0027 µM and 0.251 µM.
Take `C[C@]12CCCO[C@H]1Cn1cc(C(=O)NCc3c(F)cc(F)cc3F)c(=O)c(O)c1C2=O` (single isomer, unassigned) [Compound 23]: the IC50 was found to be 0.0015 µM under setting [1] and 1.26 µM under setting [2].
Regarding `Cc1cc(CNC(=O)c2cn3c(c(O)c2=O)C(=O)[C@@]2(C)CCCO[C@H]2C3)ccc1F` (single isomer, unassigned) [Compound 24], the IC50 under setting [1] worked out at 0.0043 µM and the IC50 under setting [2] was above 8.4 µM.
With `C[C@]12CCCO[C@H]1Cn1cc(C(=O)NCc3ccc(F)c(Br)c3)c(=O)c(O)c1C2=O` (single isomer, unassigned) [Compound 25], the IC50 under setting [1] stood at 0.0042 µM and the IC50 under setting [2] was above 8.4 µM.
With `C[C@]12CCCO[C@H]1Cn1cc(C(=O)NCc3cccc(Cl)c3F)c(=O)c(O)c1C2=O` (single isomer, unassigned) [Compound 26], the IC50 by setting is: under setting [1], 0.0011 µM; under setting [2], 2.55 µM.
Turning to `Cc1c(F)ccc(CNC(=O)c2cn3c(c(O)c2=O)C(=O)[C@@]2(C)CCCO[C@H]2C3)c1F` (single isomer, unassigned) [Compound 27], the IC50 under setting [1] came out at 0.002 µM and the IC50 under setting [2] is above 8.4 µM.
In the same order, the values of `C[C@]12CCCO[C@H]1Cn1cc(C(=O)NCc3cc(F)c(F)c(F)c3)c(=O)c(O)c1C2=O` (single isomer, unassigned) [Compound 28] are 0.0044 µM and above 8.4 µM.
The corresponding values for `C[C@]12CCCO[C@H]1Cn1cc(C(=O)NCc3ccc4c(c3)OCO4)c(=O)c(O)c1C2=O` (single isomer, unassigned) [Compound 29] are 0.017 µM and above 8.4 µM.
`C[C@]12CCCO[C@H]1Cn1cc(C(=O)NCc3ccc(F)c(Cl)c3)c(=O)c(O)c1C2=O` (single isomer, unassigned) [Compound 30]: the IC50 runs as follows: under setting [1], 0.0028 µM; under setting [2], above 8.4 µM.
In the same order, the values of `COc1ncc(CNC(=O)c2cn3c(c(O)c2=O)C(=O)[C@@]2(C)CCCO[C@H]2C3)cc1Cl` (single isomer, unassigned) [Compound 32] are 0.0082 µM and above 8.4 µM.
As to `C[C@]12CCCO[C@@H]1Cn1cc(C(=O)NCc3ccc(F)cc3F)c(=O)c(O)c1C2=O` (single isomer, unassigned) [Compound 33], the IC50 under setting [3] came out at 0.0005 µM and the IC50 under setting [4] turned out to be 0.281 µM.
As to `C[C@]12CCCO[C@@H]1Cn1cc(C(=O)NCc3ccc(F)cc3F)c(=O)c(O)c1C2=O` (single isomer, unassigned) [Compound 34], the IC50 under setting [3] stood at 0.0017 µM and the IC50 under setting [4] worked out at 1.5 µM.
As to `C[C@]12CCCO[C@@H]1Cn1cc(C(=O)NCc3cccc(Cl)c3F)c(=O)c(O)c1C2=O` (single isomer, unassigned) [Compound 35], the IC50 came to 0.337 µM under setting [4] and 0.0004 µM under setting [1].
On to `C[C@]12CCCO[C@@H]1Cn1cc(C(=O)NCc3cccc(Cl)c3F)c(=O)c(O)c1C2=O` (single isomer, unassigned) [Compound 36], for which the IC50 is, setting by setting: under setting [3], 0.0006 µM; under setting [4], 1.4 µM.
For the molecule `C[C@@]12CCCCO[C@@H]1Cn1cc(C(=O)NCc3ccc(F)cc3F)c(=O)c(O)c1C2=O` (single isomer, unassigned) [Compound 39], the IC50 is, setting by setting: under setting [4], 0.033 µM; under setting [1], 0.0008 µM.
On to `C[C@@]12CCCCO[C@@H]1Cn1cc(C(=O)NCc3ccc(F)cc3F)c(=O)c(O)c1C2=O` (single isomer, unassigned) [Compound 40], for which the IC50 is 0.0015 µM under setting [3] and 0.442 µM under setting [4].
As for `C[C@@]12CCCCO[C@@H]1Cn1cc(C(=O)NCc3c(F)cc(F)cc3F)c(=O)c(O)c1C2=O` (single isomer, unassigned) [Compound 41], the IC50 is, setting by setting: under setting [4], 0.034 µM; under setting [1], 0.002 µM.
For `C[C@@]12CCCCO[C@@H]1Cn1cc(C(=O)NCc3c(F)cc(F)cc3F)c(=O)c(O)c1C2=O` (single isomer, unassigned) [Compound 42], the IC50 reads like this: under setting [3], 0.0021 µM; under setting [4], 0.517 µM.
Take `C[C@]12CCCCO[C@@H]1Cn1cc(C(=O)NCc3ccc(F)cc3F)c(=O)c(O)c1C2=O` (single isomer, unassigned) [Compound 43]: the IC50 reads like this: under setting [4], 2 µM; under setting [1], 0.0032 µM.
`C[C@]12CCCCO[C@@H]1Cn1cc(C(=O)NCc3ccc(F)cc3F)c(=O)c(O)c1C2=O` (single isomer, unassigned) [Compound 44]: the IC50 by setting is: under setting [3], 0.0019 µM; under setting [4], 0.316 µM.
Turning to `C[C@]12CCCCO[C@@H]1Cn1cc(C(=O)NCc3cccc(Cl)c3F)c(=O)c(O)c1C2=O` (single isomer, unassigned) [Compound 45], the IC50 stood at 4.75 µM under setting [4] and 0.0023 µM under setting [1].
Consider `C[C@]12CCCCO[C@@H]1Cn1cc(C(=O)NCc3cccc(Cl)c3F)c(=O)c(O)c1C2=O` (single isomer, unassigned) [Compound 46], for which the IC50 reads like this: under setting [3], 0.0013 µM; under setting [4], 0.459 µM.
Take `CC1(C)CCn2cc(C(=O)NCc3ccc(F)cc3)c(=O)c(O)c2C1=O` [Compound 2]: under setting [1], the IC50 was 0.027 µM.
